# Assay results: patent US20240366648A1, “NAD-AUGMENTATION THERAPY FOR PARKINSON'S DISEASE” (Vestlandets Innovasjonsselskap AS (VIS), priority 2021, published 2024)
# How the values were obtained:
# [1] = tested on: GDF15, FGF21, Nf-L, inflammatory cytokines; test: Nf-L, GDF15, FGF21 and cytokine detection in serum and CSF; format: in vivo, human
# Description: Neurofilament light chain (Nf-L) measurement in CSF and serum samples was carried out in duplicates using the Simoa NF-light Advantage (SR-X) Kit (Quanterix) according to the manufacturer's recommendations and analyzed on an Simoa SR-X instrument (Quanterix). GDF15 and FGF21 detection was carried out using ELISA kits GDF-15/MIC-1 Human ELISA (RD191135200R) and Fibroblast Growth Factor 21 Human ELISA (RD191108200R) from BioVendor according to manufacturer's recommendations. For CSF analyses of GDF15, CSF was diluted 1:2 in dilution buffer. All samples were analyzed twice in duplicates. Inflammatory Cytokine screening was carried out using the Human Cytokine Magnetic 35-plex panel (Invitrogen), detecting FGF-Basic, IL-1 beta, G-CSF, IL-10, IL-13, IL-6, IL-12, RANTES, Eotaxin, IL-17A, MIP-1 alpha, GM-CSF, MIP-1 beta, MCP-1, IL-15, EGF, IL-5, HGF, VEGF, IL-1 alpha, IFN-gamma, IL-17F, IFN-alpha, IL-9, IL-1RA, TNF-alpha, IL-3, IL-2, IL-7, IP-10, IL-2R, IL-22, MIG, IL-4, IL-8. CSF and serum samples were analyzed according to the manufacturer's recommendations and measured on a BioPlex 200 instrument (BioRad).
# The between visit change ([visit 2]−[visit 1]) in MDS-UPDRS (total of subsections I-III; and individual subsections I, II and III) was compared between the NR and placebo groups using independent Student's t-test. In addition, the between visit change in MDS-UPDRS (total and subsections) within the NR, MRS-responder, and placebo groups was assessed by paired Student's t-test. For the 31P-MRS analyses, the change in measured metabolites between visit 1 and visit 2 was assessed in the placebo- and NR group using paired Student's t-test. In addition, the between-visit change in NAD/ATP-α was compared between the NR and placebo group by independent Student's t-test. For PET analyses, changes in network scores with treatment were evaluated for each group separately using paired Student's t-tests or permutation tests. Relationships between network values, NAD levels and MDS-UPDRS motor ratings or between treatment-related changes in these variables were evaluated using Pearson's product-moment correlations; Spearman rank-order correlation coefficients were computed for non-normal distributions of the variables. These statistical tests were performed using SPSS (SPSS Inc., Chicago, IL); results were considered significant for p≤0.05 (two-tailed). Metabolite quantification data, Nf-L; GDF15, FGF21 and cytokine data were analyzed by paired sample Wilcoxon test using GraphPad Prism v 6.07.
# drosophila fly models = conditions: Schöndorf et al. 2018; cited from earlier work
smiles,measurement,setting,value
"NC(=O)c1ccc[n+]([C@@H]2O[C@H](CO)[C@@H](O)[C@H]2O)c1 [NR, nicotinamide riboside]",FGF21 in serum,"[1]; NR group, visit 2 vs visit 1",unchanged
same,GDF15 levels in CSF (decrease),"[1]; NR group, visit 2 vs visit 1",not in CSF
same,GDF15 levels in serum,"[1]; NR group, visit 2 vs visit 1",mild but significant decrease
same,neurofilament light chain (Nf-L) levels in serum and CSF,"[1]; NR group, visit 2 vs visit 1",unchanged
same,levels of several inflammatory cytokines in serum and CSF,"[1]; NR group, within-group, visit 2 vs visit 1",reduced
same,"fold change of serum cytokines that also decreased in placebo, compared between groups",[1]; NR vs placebo,no significant difference
same,mitochondrial defects and dopaminergic neuronal loss in drosophila fly models,drosophila fly models,rescues mitochondrial defects and age-related dopaminergic neuronal loss
